Reference: patent publication US7371536B2, “Methods for transporting vitamin C” (priority 1999, dated 2008)

Legend:
Type in all cases: cell-based
human SVCT1 = molecular target: T1, human SVCT1 (Homo sapiens, UniProt Q9UHI7); test: Two-microelectrode voltage-clamp of Xenopus oocytes expressing human SVCT1
T1 construct: expressed in transfected cells; host or cells: Xenopus laevis oocytes injected with cRNA (vector pTLN2)
Experimental: Functional characterization in Xenopus oocytes—SVCT1 and SVCT2 cDNAs were subcloned into the pTLN2 vector (to improve functional expression in oocytes) and used for cRNA synthesis in vitro using the MEGAscript kit and T7 RNA polymerase (from Ambion). Oocytes were isolated from Xenopus laevis, treated with collagenase A and maintained at 18° C. in modified Barths' medium. Oocytes were injected with 15 ng SVCT1 or SVCT2 cRNA or water only. The radiotracer uptake and voltage-clamp experiments described below were conducted 2-5 days post-injection in standard medium of composition 100 mM NaCl, 2 mM KCl, 1 mM CaCl2, 1 mM MgCl2, and 10 mM HEPES (buffered to pH 7.5 with Tris base). For low-Na^+ or Na^+-free media, NaCl was replaced with choline chloride. For pH-dependence experiments, Na^+ media were buffered to between pH 5.5 and pH 8.0 using 0-5 mM MES, 0-5 mM HEPES and 0-5 mM Tris base. L-Ascorbic acid-containing solutions were always freshly prepared and used immediately. Radiotracer uptake was determined by incubating 8-12 oocytes for 30 min (within the time-course of linear uptake) in standard Na^+, low-Na^+ or Na^+-free media with 10-500 μM L-[1-^14C]ascorbic acid (final specific activity ≈0.3 GBq/mmol). Oocytes were solubilized with 10% SDS and carbon-14 content measured by liquid scintillation counting. A two-microelectrode voltage-clamp was used to measure currents associated with SVCT1 expressed in oocytes. Oocytes were superfused at 22° C. in standard Na^+ medium and clamped at −50 mV. Current was continuously monitored by sampling at 1 Hz. Test solutions were always washed out with substrate-free, Na^+-free medium at pH 7.5 for several minutes. Once again, saturation kinetics data were fit to a modified Hill equation in which I and Imax were replaced by uptake V and maximal velocity Vmax for analysis of radiotracer uptake data.

rat SVCT2 = molecular target: T2, rat SVCT2 (Rattus norvegicus, UniProt Q9WTW8); test: Two-microelectrode voltage-clamp of Xenopus oocytes expressing rat SVCT2; conditions: oocytes expressing SVCT2, in the presence of Na^+
T2 construct: expressed in transfected cells; host or cells: Xenopus laevis oocytes injected with cRNA (vector pTLN2)
T2 sequence (Q9WTW8 whole entry): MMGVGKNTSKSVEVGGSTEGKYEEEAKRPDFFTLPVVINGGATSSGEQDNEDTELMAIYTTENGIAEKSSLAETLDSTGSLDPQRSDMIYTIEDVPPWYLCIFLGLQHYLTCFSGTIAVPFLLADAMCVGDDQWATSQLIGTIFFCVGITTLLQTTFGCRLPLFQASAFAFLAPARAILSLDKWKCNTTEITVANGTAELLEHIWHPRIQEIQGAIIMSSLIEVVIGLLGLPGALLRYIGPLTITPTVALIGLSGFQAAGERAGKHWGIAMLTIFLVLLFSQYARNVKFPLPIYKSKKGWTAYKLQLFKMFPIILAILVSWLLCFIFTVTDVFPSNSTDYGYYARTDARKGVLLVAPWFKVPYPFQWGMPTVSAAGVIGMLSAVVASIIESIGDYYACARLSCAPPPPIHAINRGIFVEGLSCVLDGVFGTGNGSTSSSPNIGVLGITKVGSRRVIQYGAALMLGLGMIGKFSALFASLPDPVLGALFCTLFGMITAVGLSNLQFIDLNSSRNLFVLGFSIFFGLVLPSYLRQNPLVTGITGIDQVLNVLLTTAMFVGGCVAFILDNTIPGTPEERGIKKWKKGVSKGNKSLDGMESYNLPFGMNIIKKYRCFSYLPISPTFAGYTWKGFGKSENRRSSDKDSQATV
Experimental: Rat SVCT1 and SVCT2 clones were obtained by isolating SVCT1 cDNA from rat kidney by expression cloning as described in Hediger et al., Methods Enzymol. 296:17-52 (1998). The SVCT2 cDNA was subsequently isolated by PCR-based homology screening of a rat brain cDNA library. A 2.5-kb rabbit cDNA with 96% identity to residues 96-505 of the rat SVCT2 was obtained by RT-PCR. Radiotracer and voltage-clamp experiments were performed (at 22° C.) in Xenopus oocytes two to seven days after injection with ˜25 ng of SVCT1 or SVCT2 cRNA synthesized in vitro. Radiotracer uptake was determined by incubating 6-10 oocytes for 30 or 60 min in standard 100 mM Na^+ or Na^+-free media with 10-600 μM L-[^14C]ascorbic acid. […]
Radiotracer uptake was determined by incubating 6-10 oocytes for 30 or 60 min in standard Na^+ or Na^+-free media (at 22° C.) with 10-600 μM L-[1-^14C]ascorbic acid (final specific activity 0.3 GBq/mmol). Oocytes were solubilized with 10% SDS and [^14C]-content was measured by liquid scintillation counting. […] Steady-state data (obtained by averaging the points over the final 16.7 ms at each Vm step when step-changes were applied) were fitted to equation (1) below, for which I is the evoked current (i.e., the difference in steady-state current measured in the presence and absence of substrate), Imax the derived current maximum, S the concentration of substrate S (Na^+ or L-ascorbic acid), […]

rat SVCT1 = molecular target: T3, rat SVCT1 (Rattus norvegicus, UniProt Q9WTW7); test: Two-microelectrode voltage-clamp of Xenopus oocytes expressing rat SVCT1
T3 construct: expressed in transfected cells; host or cells: Xenopus laevis oocytes injected with cRNA
T3 sequence (Q9WTW7 whole entry): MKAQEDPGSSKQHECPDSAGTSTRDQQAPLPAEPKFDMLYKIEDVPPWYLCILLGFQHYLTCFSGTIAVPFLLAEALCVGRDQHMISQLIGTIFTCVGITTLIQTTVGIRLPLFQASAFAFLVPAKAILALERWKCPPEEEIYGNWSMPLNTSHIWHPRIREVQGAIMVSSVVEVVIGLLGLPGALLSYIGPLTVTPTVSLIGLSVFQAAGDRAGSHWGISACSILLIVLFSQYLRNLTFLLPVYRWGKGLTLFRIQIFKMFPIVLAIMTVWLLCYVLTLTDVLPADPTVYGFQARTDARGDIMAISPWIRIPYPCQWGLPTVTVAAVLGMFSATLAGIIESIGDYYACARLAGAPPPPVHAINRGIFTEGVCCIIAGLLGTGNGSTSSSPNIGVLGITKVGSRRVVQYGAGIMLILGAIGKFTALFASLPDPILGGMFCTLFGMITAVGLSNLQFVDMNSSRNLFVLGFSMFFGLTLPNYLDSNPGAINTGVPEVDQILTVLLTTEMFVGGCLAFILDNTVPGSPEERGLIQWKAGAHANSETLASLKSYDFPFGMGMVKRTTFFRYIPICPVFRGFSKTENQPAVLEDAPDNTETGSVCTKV
Experimental: Rat SVCT1 and SVCT2 clones were obtained by isolating SVCT1 cDNA from rat kidney by expression cloning as described in Hediger et al., Methods Enzymol. 296:17-52 (1998). The SVCT2 cDNA was subsequently isolated by PCR-based homology screening of a rat brain cDNA library. […] Radiotracer and voltage-clamp experiments were performed (at 22° C.) in Xenopus oocytes two to seven days after injection with ˜25 ng of SVCT1 or SVCT2 cRNA synthesized in vitro. Radiotracer uptake was determined by incubating 6-10 oocytes for 30 or 60 min in standard 100 mM Na^+ or Na^+-free media with 10-600 μM L-[^14C]ascorbic acid.
Functional characterization of SVCT1 and SVCT2 in Xenopus oocytes—Oocytes were isolated from Xenopus laevis (under 2-aminoethylbenzoate anaesthesia), treated with collagenase A and stored at 18° C. in modified Barths' medium. Oocytes were injected with ≈25 ng of SVCT1 or SVCT2 cRNA synthesized in vitro, or water only (control), and incubated 2-7 days before radiotracer or voltage-clamp experiments were performed. Standard Na^+ uptake medium comprised 100 mM NaCl, 2 mM KCl, 1 mM CaCl2, 1 mM MgCl2, 10 mM HEPES (pH 7.5 with Tris base). For Na^+-free or low-Na^+ media, NaCl was replaced by equimolar choline chloride; likewise, Cl^− was replaced by gluconate for Cl^−-free medium. For pH-sensitivity experiments, Na^+ media were buffered at pH 5.5-8.0 using 0-5 mM MES, 0-5 mM HEPES and 0-5 mM Tris base. L-Ascorbic acid-containing solutions were freshly-prepared (without dithiothreitol) and used immediately.
Radiotracer uptake was determined by incubating 6-10 oocytes for 30 or 60 min in standard Na^+ or Na^+-free media (at 22° C.) with 10-600 μM L-[1-^14C]ascorbic acid (final specific activity 0.3 GBq/mmol). Oocytes were solubilized with 10% SDS and [^14C]-content was measured by liquid scintillation counting. A two-microelectrode voltage-clamp was used to measure currents in control oocytes and oocytes injected with rat SVCT1 or rat SVCT2 cRNA. Microelectrodes (resistance 0.5-5 MΩ) were filled with 3 M KCl. Oocytes were superfused at 22° C. in standard Na^+ medium and clamped at a holding potential (Vh) of −50 mV. For continuous current monitoring at Vh=−50 mV, the current was low-pass filtered at 20 Hz (sampling at 1 Hz). Additionally, step-changes in membrane potential (Vm) were applied (from +50 mV to −150 mV in 20-mV increments), each for a duration of 100 ms, before and after the addition of substrate; current was low-pass filtered at 500 Hz and digitized at 5 kHz. Test solutions were always washed out with substrate-free medium (100 mM choline chloride) at pH 7.5 for several minutes. Steady-state data (obtained by averaging the points over the final 16.7 ms at each Vm step when step-changes were applied) were fitted to equation (1) below, for which I is the evoked current (i.e., the difference in steady-state current measured in the presence and absence of substrate), Imax the derived current maximum, S the concentration of substrate S (Na^+ or L-ascorbic acid),
[formula] the substrate concentration at which current was half-maximal, and nH the Hill coefficient for S. (For radiotracer experiments, I was replaced with velocity V and Imax replaced with the derived maximal velocity, Vmax.)

T1 sequence (Q9UHI7 whole entry): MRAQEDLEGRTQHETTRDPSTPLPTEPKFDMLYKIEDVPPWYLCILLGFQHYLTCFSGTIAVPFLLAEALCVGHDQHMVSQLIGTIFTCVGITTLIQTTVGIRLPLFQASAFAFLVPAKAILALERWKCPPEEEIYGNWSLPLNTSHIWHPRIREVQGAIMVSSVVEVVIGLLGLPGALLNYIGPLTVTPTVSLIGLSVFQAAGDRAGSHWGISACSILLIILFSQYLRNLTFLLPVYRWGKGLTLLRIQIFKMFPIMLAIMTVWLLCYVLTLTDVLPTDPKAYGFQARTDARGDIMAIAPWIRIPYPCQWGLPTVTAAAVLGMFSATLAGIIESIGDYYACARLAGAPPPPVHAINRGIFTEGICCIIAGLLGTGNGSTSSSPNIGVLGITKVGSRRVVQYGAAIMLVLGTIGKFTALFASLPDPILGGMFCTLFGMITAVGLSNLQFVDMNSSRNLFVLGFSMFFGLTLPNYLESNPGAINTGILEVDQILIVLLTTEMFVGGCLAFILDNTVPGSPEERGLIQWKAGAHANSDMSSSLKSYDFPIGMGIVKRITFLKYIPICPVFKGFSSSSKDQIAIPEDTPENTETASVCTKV

reduction in current at pH 5.5 compared with pH 7.5 (human SVCT1; 500 μM L-ascorbic acid, −50 mV): > 60%
L-ascorbic acid-evoked current (human SVCT1; 500 μM, −50 mV, mean±SEM from eight oocytes): −114±20 nA
L-ascorbic acid-evoked reversible inward currents (human SVCT1; in the presence of extracellular Na^+): up to −150 nA
K0.5 based on evoked currents (human SVCT1; −50 mV, 100 mM Na^+, mean±propagated SEM from 5 oocytes): 54 ± 10 µM
L-ascorbic acid-evoked reversible inward currents (rat SVCT2): up to −10 nA
Hill coefficient (nH) (rat SVCT1; evoked currents, −50 mV): ≈ 1
reduction of evoked currents at pH 5.5 versus pH 7.5 (rat SVCT1; extracellular pH 5.5 compared with pH 7.5): 50%
L-ascorbic acid-evoked reversible inward currents (rat SVCT1; oocytes expressing SVCT1, in the presence of Na^+): up to −100 nA
K0.5 (L-ascorbic acid concentration at which currents were half-maximal) (rat SVCT1; −50 mV, 100 mM Na^+): 30 µM
SMILES: O=C1O[C@H]([C@@H](O)CO)C(O)=C1O [L-ascorbic acid]
